Assay results: patent US11034993B2, “Assay to measure factor Xa inhibitors” (McMaster University, priority 2018, dated 2021)

Assays:
Assay type in all cases: biochemical
FXa [1] = molecular target: T1, FXa (Homo sapiens, UniProt P00742); test: Flu-II cleavage by residual FXa in individual plasma samples; settings: citrated plasma from four individuals; rivaroxaban 0 to 5 nM, apixaban 0 to 10 nM
Target sequence in this assay (P00742 41-179 limits assumed): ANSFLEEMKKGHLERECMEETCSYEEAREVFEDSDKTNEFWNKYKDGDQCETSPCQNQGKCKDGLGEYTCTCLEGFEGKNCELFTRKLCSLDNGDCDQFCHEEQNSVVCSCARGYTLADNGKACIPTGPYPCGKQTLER
Target sequence in this assay (P00742 235-488 limits assumed): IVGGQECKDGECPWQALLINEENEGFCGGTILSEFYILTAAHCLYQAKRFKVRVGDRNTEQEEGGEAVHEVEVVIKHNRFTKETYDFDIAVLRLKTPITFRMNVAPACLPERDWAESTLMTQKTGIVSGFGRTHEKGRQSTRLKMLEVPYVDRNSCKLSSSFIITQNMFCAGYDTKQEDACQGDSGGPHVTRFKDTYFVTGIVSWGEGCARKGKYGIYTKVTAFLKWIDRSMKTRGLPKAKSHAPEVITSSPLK
Target sequence in this assay (P12259 29-737 partner limits assumed): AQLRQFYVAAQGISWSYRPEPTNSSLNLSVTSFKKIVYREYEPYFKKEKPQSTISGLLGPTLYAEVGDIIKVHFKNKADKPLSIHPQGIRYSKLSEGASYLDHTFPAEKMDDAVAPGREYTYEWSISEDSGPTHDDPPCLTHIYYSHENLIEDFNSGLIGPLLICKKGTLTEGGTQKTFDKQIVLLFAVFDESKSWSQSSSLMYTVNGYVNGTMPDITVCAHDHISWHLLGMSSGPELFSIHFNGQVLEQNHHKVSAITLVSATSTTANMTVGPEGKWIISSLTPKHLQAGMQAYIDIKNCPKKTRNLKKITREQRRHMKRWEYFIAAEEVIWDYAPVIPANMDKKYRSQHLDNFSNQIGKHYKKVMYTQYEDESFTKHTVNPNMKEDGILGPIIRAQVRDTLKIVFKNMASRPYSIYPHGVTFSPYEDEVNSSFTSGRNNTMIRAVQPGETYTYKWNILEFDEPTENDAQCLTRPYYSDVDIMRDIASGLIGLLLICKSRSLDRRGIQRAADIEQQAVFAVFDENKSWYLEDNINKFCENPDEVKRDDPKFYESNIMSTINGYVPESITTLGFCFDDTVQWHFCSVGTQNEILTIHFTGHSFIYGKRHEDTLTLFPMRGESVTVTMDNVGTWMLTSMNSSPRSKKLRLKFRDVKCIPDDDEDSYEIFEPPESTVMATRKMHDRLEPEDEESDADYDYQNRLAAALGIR
Target sequence in this assay (P12259 1574-2224 partner limits assumed): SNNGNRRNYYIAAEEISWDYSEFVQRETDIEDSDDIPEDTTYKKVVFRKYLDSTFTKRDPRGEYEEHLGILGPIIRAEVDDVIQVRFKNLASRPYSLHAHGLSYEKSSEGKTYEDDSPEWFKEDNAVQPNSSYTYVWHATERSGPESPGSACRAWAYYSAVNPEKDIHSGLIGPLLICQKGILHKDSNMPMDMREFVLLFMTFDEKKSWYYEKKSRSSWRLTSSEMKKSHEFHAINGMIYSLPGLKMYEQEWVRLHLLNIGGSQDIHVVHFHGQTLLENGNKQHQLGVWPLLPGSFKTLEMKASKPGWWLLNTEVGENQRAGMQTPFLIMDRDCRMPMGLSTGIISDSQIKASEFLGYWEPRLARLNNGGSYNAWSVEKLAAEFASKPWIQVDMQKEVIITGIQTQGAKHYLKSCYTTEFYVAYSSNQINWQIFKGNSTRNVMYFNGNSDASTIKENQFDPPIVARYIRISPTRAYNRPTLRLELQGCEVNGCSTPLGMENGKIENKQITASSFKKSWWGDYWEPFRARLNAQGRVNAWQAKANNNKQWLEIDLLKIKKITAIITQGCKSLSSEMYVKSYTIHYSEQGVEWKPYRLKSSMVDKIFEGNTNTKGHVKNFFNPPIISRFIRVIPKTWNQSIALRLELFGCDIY

FXa [2] = molecular target: T1, FXa; test: Flu-II cleavage by residual FXa in whole blood; settings: citrated whole blood, 0 to 100 nM in blood (2 nM final, 50-fold dilution)
Target sequence in this assay (P00742 41-179 limits assumed): as the sequence (P00742 41-179 limits assumed) above
Target sequence in this assay (P00742 235-488 limits assumed): as the sequence (P00742 235-488 limits assumed) above
Target sequence in this assay (P12259 29-737 partner limits assumed): as the sequence (P12259 29-737 partner limits assumed) above
Target sequence in this assay (P12259 1574-2224 partner limits assumed): as the sequence (P12259 1574-2224 partner limits assumed) above
Experimental: To test whether Flu-II cleavage by residual FXa can be measured in whole blood, citrated blood was collected to be used in the assay. […] A mixture (50 μL) containing 2 μL of whole blood containing varying levels of the DOACs (0 to 100 nM), 0.4 μM Flu-II, and 2 μM hirudin was monitored with FlexStation 3 fluorescent plate reader as described above. Again after one minute of equilibration, 50 μL of a mixture containing 0.1 nM FXa, 10 nM FVa, 50 μM PCPS, and 20 mM CaCl2 was added and mixed by instrument trituration. The initial rates of fluorescence change was then measured and plotted with respect to the final DOAC concentration in the reaction mixture, which results in a 1:50 dilution.

FXa [3] = molecular target: T1, FXa; test: Rate of Flu-II cleavage by residual FXa in normal human pooled plasma; settings: rivaroxaban 0 to 5 nM, apixaban 0 to 10 nM, 0.1 nM FXa mixture
Target sequence in this assay (P00742 41-179 limits assumed): as the sequence (P00742 41-179 limits assumed) above
Target sequence in this assay (P00742 235-488 limits assumed): as the sequence (P00742 235-488 limits assumed) above
Target sequence in this assay (P12259 29-737 partner limits assumed): as the sequence (P12259 29-737 partner limits assumed) above
Target sequence in this assay (P12259 1574-2224 partner limits assumed): as the sequence (P12259 1574-2224 partner limits assumed) above

FXa [4] = molecular target: T1, FXa; test: Flu-II cleavage by residual FXa in plasma with LMWH; settings: normal human pooled plasma, LMWH 0 to 1 unit/mL final
Target sequence in this assay (P00742 41-179): as the sequence (P00742 41-179 limits assumed) above
Target sequence in this assay (P00742 235-488): as the sequence (P00742 235-488 limits assumed) above
Target sequence in this assay (P01008 33-464 partner): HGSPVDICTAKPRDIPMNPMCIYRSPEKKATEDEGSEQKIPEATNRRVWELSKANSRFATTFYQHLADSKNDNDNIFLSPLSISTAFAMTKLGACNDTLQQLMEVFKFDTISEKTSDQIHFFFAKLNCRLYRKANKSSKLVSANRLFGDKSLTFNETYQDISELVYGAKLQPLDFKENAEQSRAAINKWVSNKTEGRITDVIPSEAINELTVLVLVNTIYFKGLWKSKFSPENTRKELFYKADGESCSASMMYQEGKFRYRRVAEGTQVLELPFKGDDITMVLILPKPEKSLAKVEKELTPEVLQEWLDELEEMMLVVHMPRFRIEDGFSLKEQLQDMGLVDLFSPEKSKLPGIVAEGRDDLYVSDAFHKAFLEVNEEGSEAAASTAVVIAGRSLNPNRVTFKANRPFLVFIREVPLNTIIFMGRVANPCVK

Compound | maximal inhibition of total FXa activity (FXa [1]) | maximal inhibition (initial rate of Flu-II cleavage) (FXa [2]) | overall inhibition of total activity (rate of Flu-II cleavage) (FXa [3]) | response of rate of Flu-II cleavage to levels of LMWH (FXa [4])
O=C(NC[C@H]1CN(c2ccc(N3CCOCC3=O)cc2)C(=O)O1)c1ccc(Cl)s1 [rivaroxaban] | ~80% | ~50% | ~85% | 
dalteparin |  |  |  | sensitive to the levels of LMWH
